Assay results: ChEMBL document CHEMBL5329199, “Discovery of novel dual Bruton's tyrosine kinase (BTK) and Janus kinase 3 (JAK3) inhibitors as a promising strategy for rheumatoid arthritis” (Bioorg Med Chem, 2023)

Key:
[1] = biological target: Tyrosine-protein kinase BTK (Homo sapiens, UniProt Q06187); assay: Inhibition of BTK (unknown origin) preincubated for 10 mins followed by kinase substrate and ATP addition and measured for 20 mins by mobility shift assay
[2] = biological target: T1, Tyrosine-protein kinase JAK3 (Homo sapiens, UniProt P52333); assay: Inhibition of JAK3 (unknown origin) preincubated for 10 mins followed by kinase substrate and ATP addition and measured for 30 mins by mobility shift assay
T1 sequence (P52333 whole entry): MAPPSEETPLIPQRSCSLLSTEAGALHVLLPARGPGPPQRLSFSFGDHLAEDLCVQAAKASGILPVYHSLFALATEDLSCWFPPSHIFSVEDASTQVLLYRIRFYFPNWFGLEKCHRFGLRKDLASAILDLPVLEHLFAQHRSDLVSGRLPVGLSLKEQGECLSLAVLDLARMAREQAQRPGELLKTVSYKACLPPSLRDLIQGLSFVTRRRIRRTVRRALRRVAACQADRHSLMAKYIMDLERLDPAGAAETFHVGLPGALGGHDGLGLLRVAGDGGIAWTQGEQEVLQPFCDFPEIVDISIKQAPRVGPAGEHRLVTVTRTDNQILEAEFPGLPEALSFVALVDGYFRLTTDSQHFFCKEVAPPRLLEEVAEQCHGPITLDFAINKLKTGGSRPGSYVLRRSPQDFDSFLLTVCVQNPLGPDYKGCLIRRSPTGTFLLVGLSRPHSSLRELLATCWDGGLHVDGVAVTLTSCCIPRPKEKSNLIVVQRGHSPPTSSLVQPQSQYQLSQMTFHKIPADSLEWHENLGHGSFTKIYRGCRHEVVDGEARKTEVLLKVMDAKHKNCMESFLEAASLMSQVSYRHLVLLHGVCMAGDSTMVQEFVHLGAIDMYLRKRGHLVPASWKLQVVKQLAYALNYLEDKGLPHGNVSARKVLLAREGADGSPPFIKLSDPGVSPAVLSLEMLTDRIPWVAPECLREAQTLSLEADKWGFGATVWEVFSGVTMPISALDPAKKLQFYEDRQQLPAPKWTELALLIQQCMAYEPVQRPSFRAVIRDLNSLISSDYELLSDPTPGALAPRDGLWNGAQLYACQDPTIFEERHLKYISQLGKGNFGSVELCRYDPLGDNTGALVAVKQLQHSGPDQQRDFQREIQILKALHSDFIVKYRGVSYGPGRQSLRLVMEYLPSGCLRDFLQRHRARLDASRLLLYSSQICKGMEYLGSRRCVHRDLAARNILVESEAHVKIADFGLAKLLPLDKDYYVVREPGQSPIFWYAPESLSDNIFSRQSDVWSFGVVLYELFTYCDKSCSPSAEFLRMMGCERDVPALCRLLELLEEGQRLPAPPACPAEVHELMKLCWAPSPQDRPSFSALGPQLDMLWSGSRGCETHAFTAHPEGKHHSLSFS

Sequence of Tyrosine-protein kinase BTK (Q06187 whole entry): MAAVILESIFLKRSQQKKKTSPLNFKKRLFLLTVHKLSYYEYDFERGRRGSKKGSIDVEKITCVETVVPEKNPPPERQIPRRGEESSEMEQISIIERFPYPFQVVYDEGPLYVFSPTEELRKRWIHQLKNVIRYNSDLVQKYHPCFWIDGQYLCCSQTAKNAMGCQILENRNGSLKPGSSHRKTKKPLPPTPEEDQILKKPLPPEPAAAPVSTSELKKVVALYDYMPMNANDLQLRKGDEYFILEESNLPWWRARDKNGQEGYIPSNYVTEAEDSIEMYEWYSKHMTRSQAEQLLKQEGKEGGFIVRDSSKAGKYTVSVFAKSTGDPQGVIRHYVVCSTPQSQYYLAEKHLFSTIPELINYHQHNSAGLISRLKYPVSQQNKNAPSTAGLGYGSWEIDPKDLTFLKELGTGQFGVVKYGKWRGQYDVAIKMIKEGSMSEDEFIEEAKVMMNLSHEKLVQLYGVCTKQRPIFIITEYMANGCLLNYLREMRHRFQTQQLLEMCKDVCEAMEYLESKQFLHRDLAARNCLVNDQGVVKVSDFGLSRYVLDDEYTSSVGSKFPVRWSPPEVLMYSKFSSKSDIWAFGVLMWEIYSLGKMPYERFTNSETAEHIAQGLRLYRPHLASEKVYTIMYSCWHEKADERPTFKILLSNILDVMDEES

IC50 [1] [µM]	IC50 [2] [µM]	Structure (SMILES)
0.0019	0.035	C=CC(=O)N1CCC[C@@H](n2nc(-c3ccc(NC(=O)c4cccc5c4CCCC5)c4c3OCO4)c3c(N)ncnc32)C1
0.0013	0.044	C=CC(=O)N1CCC[C@@H](n2nc(-c3ccc(NC(=O)c4ccc(Cl)cc4)c4c3OCO4)c3c(N)ncnc32)C1
0.00148	0.192	C=CC(=O)N1CCC[C@@H](n2nc(-c3ccc(NC(=O)c4ccco4)c4c3OCO4)c3c(N)ncnc32)C1
0.024	> 10	CC#CC(=O)N1CCC[C@@H](n2nc(-c3ccc(NC(=O)c4ccccc4)c4c3OCO4)c3c(N)ncnc32)C1
0.0021	0.12	C=CC(=O)N1CCC[C@@H](n2nc(-c3ccc(NC(=O)c4ccc(-c5ccccc5)cc4)c4c3OCO4)c3c(N)ncnc32)C1
0.0015	0.044	C=CC(=O)N1CCC[C@@H](n2nc(-c3ccc(NC(=O)c4ccc(OC)cc4)c4c3OCO4)c3c(N)ncnc32)C1
0.046	> 10	CCC(=O)N1CCC[C@@H](n2nc(-c3ccc(NC(=O)c4ccccc4)c4c3OCO4)c3c(N)ncnc32)C1
0.0024	0.1	C=CC(=O)N1CCC[C@@H](n2nc(-c3ccc(NC(=O)c4ccc[nH]4)c4c3OCO4)c3c(N)ncnc32)C1
0.029	> 10	C=CC(=O)Nc1cccc(Cn2nc(-c3ccc(NC(=O)c4ccccc4)c4c3OCO4)c3c(N)ncnc32)c1
0.0034	0.147	C=CC(=O)N1CCC[C@@H](n2nc(-c3ccc(NC(=O)c4ccc(OC)c(OC)c4)c4c3OCO4)c3c(N)ncnc32)C1
0.0018	0.044	C=CC(=O)N1CCC[C@@H](n2nc(-c3ccc(NC(=O)c4cccc(Cl)c4)c4c3OCO4)c3c(N)ncnc32)C1
0.003	> 10	N#C/C(=C\C1CC1)C(=O)N1CCC[C@@H](n2nc(-c3ccc(NC(=O)c4ccccc4)c4c3OCO4)c3c(N)ncnc32)C1
0.585	> 10	C=CC(=O)N1CCC[C@@H](n2nc(-c3ccc(NC(=O)C4CCN(C)CC4)c4c3OCO4)c3c(N)ncnc32)C1
0.0014	0.07	C=CC(=O)N1CCC[C@@H](n2nc(-c3ccc(NC(=O)c4ccccn4)c4c3OCO4)c3c(N)ncnc32)C1
0.00102	0.097	C=CC(=O)N1CCC[C@@H](n2nc(-c3ccc(NC(=O)c4cccc(N(C)C)c4)c4c3OCO4)c3c(N)ncnc32)C1
0.0024	0.03	C=CC(=O)N1CCC[C@@H](n2nc(-c3ccc(NC(=O)c4sc5ccccc5c4Cl)c4c3OCO4)c3c(N)ncnc32)C1
